Results as given in US20160243022A1, “Use of Fermented Milk Product for Skin Treatment” (GIVAUDAN S.A., priority 2006, published 2016).

Tested on: normal human dermal fibroblasts (NHDF)
Test: [3H] proline incorporation into intracellular and ECM layer proteins (collagen synthesis)
Format: cell-based
Settings: 20 micro g/ml
Method: Normal human dermal fibroblasts (NHDF) were cultured in-vitro with radio labelled [^3H] proline. Collagen is a proline-rich protein. The level of radio labelled proline found in proteins, following culturing of the NHDF, is a measure of the rate of collagen synthesis. Yogurtene™ can be added to the cell culture to measure the effect of Yogurtene™ on the rate of proline uptake (collagen synthesis).
The study investigated the increase in radio labelled proline found in: (i) soluble/secreted proteins, and (ii) intracellular and extra-cellular matrix (ECM) proteins.
Beta-Transforming Growth Factor (β-TGF) and ascorbic acid are known collagen synthesis promoters and were used as controls in both studies.

## O=C1O[C@H]([C@@H](O)CO)C(O)=C1O [Ascorbic acid]
  Proline incorporation into intracellular & ECM layer proteins: 12764 Count/min
